Experimental data from patent publication US20260306421A1, “SYSTEMS AND METHODS FOR TRANSDERMAN PATCH DELIVERY” (VITAMAX PATCH WHOLESALER LLC, priority 2022, published 2026).
Each block holds one molecule with its values, some of them ahead of it.

Columns and labels:
[1] = Solubility of iron chloride hexahydrate and iron complexes (visual / assayed); type: physicochemical
Procedure: Due to the high number of test samples (6 complexes plus the starting material, iron chloride hexahydrate) a visual solubility screen was used to screen the solubility in a range of solvents. […] Quantitative determination was performed by either incubating the complex in excess in the solvent using a shaking 37° C. water bath for 48 h or sonicating it for 2 hours at 40° C. or leaving overnight on a 50° C. hot plate. Once incubation period was completed, the exact solubility in a particular solvent was assayed (using the iron assay) after centrifugation (i.e. assay iron content in the supernatant using the Ferrozine® assay).

[2] = Iron complex adhesive compatibility and loading screen; type: physicochemical
Procedure: Pre-formulation studies were performed to determine the compatibility of the iron complexes with a range of transdermal patch adhesives (Table 15).
The compatibility of the complexes with the patch adhesives was assessed by mixing and visually checking the clarity of the mixture.
In the adhesives that were computable with the iron complexes the maximum drug loading of the complexes in the adhesive following solvent evaporation was determined. This was achieved by mixing the drug, adhesive and co-solvents until a clear solution was obtained at different drug:adhesive ratios and placing few drops of the mixture onto the patch backing sheet, leaving it to dry for 3-4 h, and examining the formed film on the surface of the backings for evidence of drug crystals.
Following complete drying of the solvents, the adhesive layer was covered by a release liner, compressed, and then cut using 34 mm circular manual die cutter (FIG. 23).

[3] = Franz cell porcine skin permeation and deposition of iron from solutions; type: in vitro ADME
Procedure: The permeation of the iron complexes from the formulations into and across porcine skin mounted on Franz cells with a receiver fluid was tested (FIG. 4). This was based on the principles of the FDA, SUPAC-SS guidelines. The developed colorimetric assay method was used for iron quantification.
On the day of the experiment, the skin was defrosted. For the full thickness studies, the subcutaneous fat removed (2.5 mm thick) and for the dermatomes skin studies the tissued was dermatomed to a 1 mm thickness. The tissue was cut into the appropriate size sections (2.19±0.21 cm^2) and mounted between donor and receiver compartments of Franz diffusion cells with the SC facing the donor compartment. Each cell was sealed using parafilm and 12 mm magnetic stir bars were placed into the receiver compartment. The receiver compartment was filled with the desired receiver solution and the Franz cells were placed in a stirring water bath at 37° C. Cells were allowed to equilibrate for 30 min after which the receiver fluid using was mixed using a syringe and the “zero hour” sample was withdrawn from the arm and compensate with the same volume of fresh pre-warmed solution. Following zero-hour sampling, the donor solution was placed in the donor compartment and covered with parafilm. Samples were withdrawn and compensated with fresh receiver solution at set time intervals for a 24 h duration. The iron in each sample was quantified using the method specified in Section 2.2.2.1. […] There was no matrix interference noted in the assay. […] For iron maltol a 80:20 PG:water receiver was used along with a complementary calibration for iron assay (iron chloride in PG:water). The donor solution for the iron maltol made at pH 1.6 was 200 μL of 100 mg/mL complex in Transcutul®, for iron maltol made at pH 4 the donor solution was 200 μL of 23 mg/mL complex in PG and for iron maltol made at pH 4 the donor solution was 150 μL of 16 mg/mL complex in 7.5:1.5:1:1 water:PG:dimethicone:ethanol.
Once the permeation studies were completed the donor solutions were collected into bottles containing the extraction solution. This was followed by skin surface cleaning using four cotton buds, the first two were wetted by the extraction fluid and the second two were used dry. Then two tape striping procedures were performed using 2 tapes to remove any iron on the skin surface with the tape being added to the donor solution and cotton buds in the donor recover vial. For the full skin thickness skin, the Stratum corneum, the dermal and the epidermal layers were isolated in the same way as the recovery method (Section 2.3.2.1). Extraction fluid (50:50 PBS:ethanol) was then added to the tissues, 4 mL to the Stratum corneum, and 2 mL for each of the epidermis and dermis. For the dermatomed skin the whole skin section was chopped up and placed in a 2 mL extraction fluid (ethanol).
The Stratum corneum samples were placed on vibrating plate for a minimum of 2 h to extract the iron and then vortexed prior assay. The epidermis, dermis or dermatomed samples however were incubated with the extraction fluid for 1 h after which were transferred to Eppendorf tubes, one stainless steel 5 mm bead was added and the samples were loaded into the TissuLyser II (Qiagen, Germany) for 30-15 min at 30 Hz. The samples were then centrifuged (5 min at 13,000 rpm) and supernatant assayed.

[4] = donor liquid paraffin:ethanol, 24 h

Solubility of complex ([1]; PEG400): 15 mg/mL Iron
Solubility, equivalent elemental iron ([1]; PEG400): (1.8 mg/mL
Solubility of complex ([1]; PG): 8.3 mg/mL Iron
Solubility, equivalent elemental iron ([1]; PG): 1 mg/ml mg/mL
Molecule: CCc1occc(=O)c1[O-].CCc1occc(=O)c1[O-].CCc1occc(=O)c1[O-].[Fe+3] [Iron ethyl maltol made at pH 4, iron ethyl maltol]

Solubility of complex (visual) ([1]; PEG400, visual (*)): <8 mg/mL Iron
Solubility of complex ([1]; PG): 2.7 mg/mL Iron
Solubility, equivalent elemental iron ([1]; PG): 320 µg/mL
Solubility of complex ([1]; Saline): 360 μg/mL Iron
Solubility, elemental iron ([1]; Saline): (44 μg/mL
Solubility in DURO-TAK 9301 patch ([2]; drug loading 2.5-10%, no permeation enhancer): Precipitated
Solubility in DURO-TAK 9301 patch ([2]; drug loading 4%, 2 mg PEG400): Clear
Solubility in DURO-TAK 9301 patch ([2]; drug loading 4%, 2 mg PG): Clear
Solubility in DURO-TAK 9301 patch ([2]; drug loading 4%, no permeation enhancer): Clear
Solubility in DURO-TAK 9301 patch ([2]; drug loading 5%, 2.5 mg Transcutol): Precipitated
Solubility in DURO-TAK 9301 patch ([2]; drug loading 5%, 2.6 mg PEG400): Precipitated
Solubility in DURO-TAK 9301 patch ([2]; drug loading 5%, 5 mg PEG400): Precipitated
Solubility in DURO-TAK 9301 patch ([2]; drug loading 5%, 5 mg Transcutol): Clear
Solubility in DURO-TAK 9301 patch ([2]; drug loading 6%, 3.3 mg PEG400): Precipitated
Solubility in DURO-TAK 9301 patch ([2]; drug loading 7.5%, 4 mg Transcutol): Precipitated
Solubility in DURO-TAK 9301 patch ([2]; drug loading 7.5-10%, 4-5.5 mg PG): Precipitated
Solubility in DURO-TAK 9301 patch ([2]; drug loading 10-7.5%, 5.5-4 mg PEG400): Precipitated
Molecule: CCc1occc(=O)c1[O-].CCc1occc(=O)c1[O-].CCc1occc(=O)c1[O-].[Fe+3] [Iron ethyl maltol made at pH 7.4, iron ethyl maltol]

deposition into the skin ([3]; applied to the skin as a PG solution): 8 μg/cm^2
permeation and deposition in the skin ([3]; solutions, 24 h): permeated and deposited in the skin
Molecule: CCC(=O)[O-].CCC(=O)[O-].CCC(=O)[O-].[Fe+3] [Iron propionate made at pH 4, iron propionate]
iron passing through the skin ([3]; applied as solution): neither the patch nor the solution allowed iron to pass through the skin

deposition, all layers combined ([3]; donor Miglyol, 24 h): 3.7 μg/cm^2
elemental iron permeated the skin ([3]; donor Miglyol, 24 h): 2.5±1.8 μg/cm^2
deposition, all layers combined [3, 4]: 5.3 μg/cm^2
elemental iron permeated the skin [3, 4]: 4.4±1.5 μg/cm^2
Molecule: iron oleate
